Type in all cases: binding
Test [1] has as its target T1, α7 nAChR (Homo sapiens, UniProt P36544).
The target of test [2] is T1, α7 nAChR. The source holds these as a separate data set.
Test [3] has as its target T1, α7 nAChR. Description: cell-based.

T1 sequence (P36544 23-502 limits assumed): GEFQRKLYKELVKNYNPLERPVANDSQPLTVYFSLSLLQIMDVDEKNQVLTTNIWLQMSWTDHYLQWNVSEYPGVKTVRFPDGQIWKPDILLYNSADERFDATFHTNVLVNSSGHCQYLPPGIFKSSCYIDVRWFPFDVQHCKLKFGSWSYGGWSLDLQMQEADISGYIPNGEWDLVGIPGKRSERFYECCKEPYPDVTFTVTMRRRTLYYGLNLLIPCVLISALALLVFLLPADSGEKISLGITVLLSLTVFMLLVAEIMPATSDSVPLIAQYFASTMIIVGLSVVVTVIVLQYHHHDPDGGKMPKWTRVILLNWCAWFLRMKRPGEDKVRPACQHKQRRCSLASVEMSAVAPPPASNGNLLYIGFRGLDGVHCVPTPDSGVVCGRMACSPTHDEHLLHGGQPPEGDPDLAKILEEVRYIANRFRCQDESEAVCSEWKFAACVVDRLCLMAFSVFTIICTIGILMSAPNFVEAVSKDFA

As for α-cobratoxin, in test [1], the “removal of [125I]-PnIA[R9, L10] from α7 nAChR (in words)” value was “could not completely remove the radioligand from the target even after a 2-hour incubation”. In test [2], the “inhibition of [125I]-PnIA[R5, R9, L10, R14] binding (in words)” value was “failed to achieve a 50% inhibition”. In test [3], the “Hill coefficient, “replaceable” binding at the orthosteric site” value is 1.0 ± 0.3 and the “radioligand [125I]-PnIA[R9, L10] not displaced” value is “≈ 25%”. For the same substance, the IC50 (usually the midpoint of a concentration-inhibition curve) in test [3] (read-out: IC50 of [125I]-PnIA[R9, L10] binding inhibition, “replaceable” binding at the orthosteric site) came to 11 ± 3 nM.

Values taken from article PMC5107951 (Scientific Reports, 2016).
